We go through 22 compounds from ChEMBL document CHEMBL3046032, “Synthesis and biological evaluation of novel AM80 derivatives as antileukemic agents” (Med Chem Res, 2013).

Holding throughout (format): functional, cell-based
Assay [1] has as its system NB-4. In words: Cytotoxicity against Homo sapiens (human) NB4 cells assessed as growth inhibition after 48 hr by MTT assay. Particulars: NB-4, 48 h.
In assay [2] the test system is K562. In words: Cytotoxicity against Homo sapiens (human) K562 cells assessed as growth inhibition after 48 hr by MTT assay. Particulars: K562, 48 h.
Assay [3] concerns HL-60. In words: Cytotoxicity against Homo sapiens (human) HL60 cells assessed as growth inhibition after 48 hr by MTT assay. The note with it: HL-60, 48 h.

`C=C(c1ccc(C(=O)NCCNC(=O)c2ccc(C(=O)Nc3ccc4c(c3)C(C)(C)CCC4(C)C)cc2)cc1)c1cc2c(cc1C)C(C)(C)CCC2(C)C`: the IC50 in assay [1] amounted to 569 µM; in assay [2] it was 73.5 µM; in assay [3] it was 14.8 µM.

As to `C=C(c1ccc(C(=O)OCCCOC(=O)c2ccc(C(=O)Nc3ccc4c(c3)C(C)(C)CCC4(C)C)cc2)cc1)c1cc2c(cc1C)C(C)(C)CCC2(C)C`, the 50% inhibitory concentration (IC50) in assay [1] was 212 µM; in assay [2], more than 1000 µM; in assay [3], 19.2 µM.

Take `CCCC(CCC)C(=O)OCCCCOC(=O)c1ccc(C(=O)Nc2ccc3c(c2)C(C)(C)CCC3(C)C)cc1`: the IC50 in assay [1] is more than 1000 µM; in assay [2] it was more than 1000 µM; in assay [3], 914 µM.

Take `CCCC(=O)OCCOC(=O)c1ccc(C(=O)Nc2ccc3c(c2)C(C)(C)CCC3(C)C)cc1`: the IC50 in assay [1] was determined as 11 µM; in assay [2], 18.6 µM; in assay [3], 6.29 µM.

For the compound `CCCC(CCC)C(=O)OCCOC(=O)c1ccc(C(=O)Nc2ccc3c(c2)C(C)(C)CCC3(C)C)cc1`, the IC50 in assay [1] is more than 1000 µM; in assay [2], 664 µM; in assay [3] it was 256 µM.

As for `Cc1cc2c(cc1C(=O)c1ccc(C(=O)OCCCCOC(=O)c3ccc(C(=O)Nc4ccc5c(c4)C(C)(C)CCC5(C)C)cc3)cc1)C(C)(C)CCC2(C)C`, the IC50 was found to be 147 µM in assay [1], 84 µM in assay [2] and 24.7 µM in assay [3].

With `CCCC(CCC)C(=O)NCCNC(=O)c1ccc(C(=O)Nc2ccc3c(c2)C(C)(C)CCC3(C)C)cc1`, the IC50 in assay [1] was 5.69 µM; in assay [2], 83.7 µM; in assay [3], 12.4 µM.

Take `Cc1cc2c(cc1C(=O)c1ccc(C(=O)NCCCCCCNC(=O)c3ccc(C(=O)Nc4ccc5c(c4)C(C)(C)CCC5(C)C)cc3)cc1)C(C)(C)CCC2(C)C`: the half-inhibitory concentration (IC50) in assay [1] is more than 1000 µM; in assay [2], 95.4 µM; in assay [3] it was 95.4 µM.

With `C=C(c1ccc(C(=O)NCCCCCCNC(=O)c2ccc(C(=O)Nc3ccc4c(c3)C(C)(C)CCC4(C)C)cc2)cc1)c1cc2c(cc1C)C(C)(C)CCC2(C)C`, the IC50 in assay [1] is more than 1000 µM; in assay [2], 294 µM; in assay [3], 70.7 µM.

With `CCCC(=O)OCCNC(=O)c1ccc(C(=O)Nc2ccc3c(c2)C(C)(C)CCC3(C)C)cc1`, the figures for the IC50 in assay [1], in assay [2] and in assay [3] were 213 µM, 25.4 µM and 36.8 µM, respectively.

On to `Cc1cc2c(cc1C(=O)c1ccc(C(=O)OCCOC(=O)c3ccc(C(=O)Nc4ccc5c(c4)C(C)(C)CCC5(C)C)cc3)cc1)C(C)(C)CCC2(C)C`, for which the 50% inhibitory concentration (IC50) amounted to 67 µM in assay [1], 39.9 µM in assay [2] and 6.83 µM in assay [3].

Consider `CCCC(=O)OCCCCOC(=O)c1ccc(C(=O)Nc2ccc3c(c2)C(C)(C)CCC3(C)C)cc1`, for which the IC50 in assay [1] was 23.2 µM; in assay [2], 92.6 µM; in assay [3] it was 7.32 µM.

Take `CCCC(=O)NCCNC(=O)c1ccc(C(=O)Nc2ccc3c(c2)C(C)(C)CCC3(C)C)cc1`: the half-inhibitory concentration (IC50) in assay [1] turned out to be 3.26 µM; in assay [2], 7.98 µM; in assay [3], 5.61 µM.

For the compound `C=C(c1ccc(C(=O)OCCCCOC(=O)c2ccc(C(=O)Nc3ccc4c(c3)C(C)(C)CCC4(C)C)cc2)cc1)c1cc2c(cc1C)C(C)(C)CCC2(C)C`, the half-inhibitory concentration (IC50) in assay [1] is 650 µM; in assay [2], more than 1000 µM; in assay [3], 25.1 µM.

As to `CCCC(CCC)C(=O)OCCNC(=O)c1ccc(C(=O)Nc2ccc3c(c2)C(C)(C)CCC3(C)C)cc1`, the IC50 in assay [1], in assay [2] and in assay [3] was more than 1000 µM in each case.

Turning to `Cc1cc2c(cc1C(=O)c1ccc(C(=O)NCCOC(=O)c3ccc(C(=O)Nc4ccc5c(c4)C(C)(C)CCC5(C)C)cc3)cc1)C(C)(C)CCC2(C)C`, the concentration for half-maximal inhibition (IC50) is 72.4 µM in assay [1], 247 µM in assay [2] and 37.5 µM in assay [3].

`Cc1cc2c(cc1C(=O)c1ccc(C(=O)OCCCOC(=O)c3ccc(C(=O)Nc4ccc5c(c4)C(C)(C)CCC5(C)C)cc3)cc1)C(C)(C)CCC2(C)C`: the IC50 in assay [1] was 112 µM; in assay [2] it was 49.1 µM; in assay [3], 14.9 µM.

For `C=C(c1ccc(C(=O)NCCOC(=O)c2ccc(C(=O)Nc3ccc4c(c3)C(C)(C)CCC4(C)C)cc2)cc1)c1cc2c(cc1C)C(C)(C)CCC2(C)C`, the figures for the half-inhibitory concentration (IC50) in assay [1], in assay [2] and in assay [3] were more than 1000 µM, more than 1000 µM and 504 µM, respectively.

Turning to `C=C(c1ccc(C(=O)OCCOC(=O)c2ccc(C(=O)Nc3ccc4c(c3)C(C)(C)CCC4(C)C)cc2)cc1)c1cc2c(cc1C)C(C)(C)CCC2(C)C`, the IC50 in assay [1] was more than 1000 µM; in assay [2] it was 504 µM; in assay [3], 30.7 µM.

Turning to `Cc1cc2c(cc1C(=O)c1ccc(C(=O)NCCNC(=O)c3ccc(C(=O)Nc4ccc5c(c4)C(C)(C)CCC5(C)C)cc3)cc1)C(C)(C)CCC2(C)C`, the concentration for half-maximal inhibition (IC50) in assay [1] was determined as 104 µM; in assay [2], 39.6 µM; in assay [3], 14.3 µM.

For the compound `CCCC(=O)OCCCOC(=O)c1ccc(C(=O)Nc2ccc3c(c2)C(C)(C)CCC3(C)C)cc1`, the half-inhibitory concentration (IC50) was determined as 5.75 µM in assay [1], 4.57 µM in assay [2] and 2.99 µM in assay [3].

For `CCCC(CCC)C(=O)OCCCOC(=O)c1ccc(C(=O)Nc2ccc3c(c2)C(C)(C)CCC3(C)C)cc1`, the figures for the IC50 in assay [1], in assay [2] and in assay [3] were more than 1000 µM, more than 1000 µM and 835 µM, respectively.
